The source of these data is patent publication US20070270403A1 (priority 2003, published 2007).

Where two headings read alike, the source gives them in different places.

Data set [1] deals with Sprague-Dawley laboratory rats. The experiment in a line: Locomotion (ambulations) by infrared photobeams (risperidone studies). In kind it is in vivo, Sprague-Dawley Rattus Norvegicus. The following applies: Subacute. As for the experimental part: Behaviors were monitored with infrared photobeams which surrounded the faradaic chamber. Open-field behaviors of locomotion (ambulations) and stereotypy (fine movements of sniffing and grooming) were recorded in sec and repeated every five min for a period of 2 hrs before each treatment and a period of 2 hrs after each treatment. Open-field behaviors were monitored simultaneously with in vivo microvoltammetric recordings of monoamines.
(§1) The first hr pre-drug, allowed exploratory behavior. Exploratory behavior is defined as open-field behavior of ambulations (forward locomotion) and stereotypy (fine movements of sniffing and grooming), wherein animals respond to the stimuli of a novel environment with a high frequency of behavioral counts. The second hr pre-drug allowed the animal to become habituated before treatment. […] In the acute studies, each drug was administered […]. For the subacute studies, twenty four hrs later, the animals were again placed in the faradaic behavioral chamber and no further drug was administered. Each animal was monitored for possible recovery, withdrawal or after-effects. of each treatment WHILE open-field behaviors of locomotions and stereotypy were monitored with computerized infrared photocell beams which surround the faradaic chamber.
The faradaic chamber was made of plexiglas and covered with copper wire to refract possible electrical artifacts (dimensions: 24 inch (width) by 18 inch (depth) by 23.5 inch (height)). A 16 by 16 array of infrared photobeams, held in place by an aluminum frame, was situated ¾ inch above the Plexiglas floor of the chamber to detect locomotor and stereotypic movements. Photobeams were sampled by a Pentium computer to define the x-y position of the animal within a 1.5 inch resolution every 100 msec. When an x-y position was calculated, it was used to define a particular behavioral parameter. This system is a modified version of an Activity Pattern Monitor (APM) (San Diego Instruments, San Diego, Calif.). Behavioral data is presented in terms of Frequency of Events.
(§2) Neurochemical and behavioral data, derived from the last thirty minutes of the habituation period, provided the baseline data. […] Where appropriate, data points in the time course were subjected to 95% Confidence Limits (C.L.).

The subject of data set [2] is Sprague-Dawley laboratory rats. The experiment in a line: Locomotor activity (ambulations) by infrared photobeams (clozapine studies). In kind it is in vivo, Sprague-Dawley Rattus Norvegicus. The note with it: Subacute, cocaine 10 mg/kg i.p. on Day 1.
From the text: Locomotor activity (ambulation) was monitored with infrared photobeams at the same time as DA and 5-HT release in NAcc was detected with BRODERICK PROBES® in conjunction with In Vivo Microvoltammetry. The chamber was faradaic, covered with copper to refract possible electrical artifacts (dimensions: 24 in (width) by 18 in (depth) by 23.5 in (height)). A 16 by 16 array of these infrared photobeams, were held in place by an aluminum frame which was situated ¾ in above the Plexiglas floor of the chamber to detect locomotor activity. Photobeams were sampled by a Pentium computer to define the x-y position of the animal within a 1.5 in resolution every 100 msec. When an x-y position was calculated, it was used to define the frequency of locomotor activity in counts. The locomotor activity system is a modified version of an Activity Pattern Monitor (APM) (San Diego Instruments, San Diego, Calif.). Behavioral data is presented in absolute frequency, i.e., number of counts recorded.
The first hr pre-drug allowed exploratory behavior. Exploratory behavior is defined as open-field behavior of ambulations (forward locomotion) wherein animals respond to the stimuli of a novel environment with high frequency of behavioral counts. The second hr pre-drug allowed the animal to become habituated before treatment.
In the Acute studies, each drug was administered at the end of the habituation period. Baseline (control) values were taken every five min for the last thirty min of the habituation period at which time drug injection(s) took place. Electrochemical recordings for DA and 5-HT release in NAcc, were continued for two hrs; at the same time, locomotor behavior continued to be monitored and recorded with infrared photobeams. At the end of the 2 hr drug(s) study, animals were then placed back in their home cages.
In the Subacute studies, which took place twenty-four hrs later, the animals were again placed in the faradaic behavioral chamber and no further drug was administered. Recordings of separate electrochemical signals for DA and 5-HT release in NAcc, were taken for one hr; at the same time, locomotor behavior was monitored and recorded with infrared photobeams.
as §2

The conditions of data set [3]: cited from earlier work.
A further data set concerns 5-HT release in NAcc. The experiment in a line: In vivo microvoltammetry, 5-HT release in NAcc (risperidone studies). The following applies: Subacute, cocaine 10 mg/kg i.p. on Day 1. More on the design: species or system Sprague-Dawley Rattus Norvegicus. As for the experimental part: In vivo microvoltammetry was used to detect dopamine (DA) and serotonin (5-HT) release from Nucleus Accumbens (NAcc) of freely moving, male, Sprague Dawley laboratory rats, while animals' locomotor (forward ambulations) and stereotypic behavior (fine movements of sniffing and grooming) were monitored at the same time with infrared photobeams. Monoamine release mechanisms were determined by using a depolarization blocker, gamma-butyrolactone (γBL). Miniature carbon sensors, BRODERICK PROBE® Lauric Acid Microelectrodes, smaller than a human hair, were used in conjunction with a semidifferential electrochemical circuit, to detect release of each monoamine in separate signals and within seconds. […] The hypothesis for the present studies is derived from a growing body of evidence that cocaine-induced psychosis and schizophrenic psychosis share similar neurochemical and behavioral manifestations.
Animals were purchased from Charles River Laboratories, Kingston, N.Y. and were housed in our animal care facilities for two weeks before surgery was performed. The Animal Care Facility operates under the auspices of the CUNY, City College Institutional Animal Care and Use Committee (IACUC) in compliance with National Institute of Health (NIH) guidelines. The weight range for the animals, at the time of the studies, was 350-475 g. Animals were group housed before surgery, individually housed after surgery and fed Purina Rat Chow and water ad libitum. A twelve hr dark-light cycle was maintained both in the housing of the animals and throughout the experimental studies. […] A Ag/AgCl reference electrode was placed in contact with dura, 7 mm anteriorally and contralaterally to the indicator microelectrode. A stainless steel auxiliary microelectrode, was placed in contact with dura.
In vivo microvoltammetric studies on conscious Sprague-Dawley laboratory rats were begun nine to fifteen days after the aseptic surgical operations were performed. On each experimental day, animals were placed in a Plexiglas-copper faradaic chamber. The three-microelectrode assembly, enclosed within the animal's prosthetic acrylic cap, was connected to a CV37 detector by means of a mercury commutator (Br. Res. Instr., Princeton, N.J.), a flexible cable, and a mating connector (BJM Electronics, Staten Island, N.Y.). The CV37 detector was electrically connected to a Minigard surge suppresser (Jefferson Electric, Magnetek, N.Y.) which was then connected to an electrical ground in isolation. […] Each animal was used as its own control. In vivo microvoltammetric scans were recorded in sec and repeated every five min for a period of 2 hrs before each treatment and a period of two hrs after each treatment.
as §1

Data set [4] in a line: Pharmacokinetics of cocaine and its metabolites (literature). The following applies: rat, in vivo, ip; i.p. cocaine, extrapolated.

Regarding `COC(=O)[C@H]1[C@@H](OC(=O)c2ccccc2)C[C@@H]2CC[C@H]1N2C` [Cocaine, cocaine], the “Decrease in locomotor activity frequency on Day 2 compared with drug treatment, Day1” value in data set [1] is “about 200 counts”. In data set [2], the “Decrease in locomotor activity on Day 2 compared with Day 1 effects of cocaine” value is listed as 250 counts. Moreover, the half-life in data set [3] (i.v. cocaine) was 0.5 h; in data set [3] (s.c. cocaine), 4 h; in data set [4], roughly 2 h. Moreover, the “Decrease in 5-HT release on Day 2 compared to drug effect on Day1” value in the data set on 5-HT release in NAcc was “about 75%”.
